Data: patent US10668052B2, “Combinations of isomers of dihydrotetrabenazine” (ADEPTIO PHARMACEUTICALS LIMITED, priority 2017, dated 2020)
“Also recorded” adds a separate entry of the source. Read-outs that look alike come from different tables or passages of the source.

Columns and labels:
[1] = Pharmacokinetic study of tetrabenazine and dihydrotetrabenazine metabolites in plasma after oral tetrabenazine 25 mg tablets; format: in vivo, human; conditions: for Tmax / AUC(0-t) / AUC(0-inf) / Cmax / half-life / AUC: human, plasma; for Tmax: N=08, healthy adult male volunteers; for AUC(0-t): po; for Kel: unit inferred; for metabolite of tetrabenazine in humans (major/minor): after administration of tetrabenazine; for AUC: read-out: area under the curve (AUC)
Procedure: A pharmacokinetic study was carried out in healthy adult male volunteers under fasting conditions at a dose of single and multiple oral administration of 25 mg tablets once a day to ascertain the plasma levels of +/−α and +/−β dihydrotetrabenazine.
Table 1 summarises the pharmacokinetic data obtained following single-dose oral administration of tetrabenazine at a dose level of 25 mg (fasting, N=08).
Table 2 summarises the pharmacokinetic data obtained following multiple-dose oral administration of tetrabenazine at a dose level of 25 mg (fasting, N=07).

[2] = test system: amphetamine induced locomotor activity in male CD rats; conditions: for total distance travelled: normalised
Procedure: Male CD (Charles River Laboratories, Germany) at weight range of 200-250 g (165-200 g upon arrival) were used for the experiments. Animals were housed at a standard temperature (22±1° C.) and in a light-controlled environment (lights on from 7 am to 8 pm) with ad libitum access to food and water.
The locomotor activity of the rats was tested in an open field arena. The open field test was performed during the rat light cycle and under a normal lighting evenly distributed to the test chambers. The paths of the rats were recorded by activity monitor (Med. Associates Inc.).
The rats were placed in the centre of the arena, and the path was recorded for 30 minutes. After 30 minutes of testing, vehicle or amphetamine was dosed and the rat was placed in the centre of the arena, and the path was recorded for 60 minutes, the total testing time being 90 minutes.

[3] = biological target: Chromaffin Granule Monoamine Transporter (Bos taurus, UniProt Q27963); conditions: racemic isomers, in vitro; cited from earlier work
Sequence of Chromaffin Granule Monoamine Transporter (Q27963 whole entry): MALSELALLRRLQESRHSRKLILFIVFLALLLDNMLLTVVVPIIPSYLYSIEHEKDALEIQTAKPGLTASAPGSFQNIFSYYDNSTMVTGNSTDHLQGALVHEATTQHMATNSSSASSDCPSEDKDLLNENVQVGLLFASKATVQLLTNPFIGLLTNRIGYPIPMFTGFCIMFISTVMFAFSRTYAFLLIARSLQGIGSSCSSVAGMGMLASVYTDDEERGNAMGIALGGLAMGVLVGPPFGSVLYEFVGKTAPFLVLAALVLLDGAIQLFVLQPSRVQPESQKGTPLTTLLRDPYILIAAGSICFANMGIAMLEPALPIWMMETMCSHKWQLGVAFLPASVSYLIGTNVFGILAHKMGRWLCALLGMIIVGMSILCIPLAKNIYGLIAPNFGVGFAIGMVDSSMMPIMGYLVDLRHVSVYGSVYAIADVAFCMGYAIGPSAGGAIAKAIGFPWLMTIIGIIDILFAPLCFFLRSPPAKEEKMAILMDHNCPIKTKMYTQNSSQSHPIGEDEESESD

[4] = single-dose oral tetrabenazine 25 mg, fasting
[5] = male, 25 mg, multiple-dose oral tetrabenazine 25 mg once a day, fasting, N=07
[6] = male, 25 mg, single-dose oral tetrabenazine 25 mg, fasting, N=08
[7] = male, single-dose oral tetrabenazine 25 mg, fasting, N=08
[8] = multiple-dose oral tetrabenazine 25 mg once a day, fasting, N=07
[9] = single-dose oral tetrabenazine 25 mg, fasting, N=08
[10] = oral, 25 mg, single dose study, tetrabenazine to adult male humans
[11] = Study 4, 1 mg/kg, compared to vehicle-amphetamine group
[12] = Study 6, each isomer 1 mg/kg, risperidone 1 mg/kg, compared to vehicle-amphetamine group, unnormalised

| Molecule | Tmax [1, 4] [h] | AUC(0-t) [1, 5] [ng·h/mL] | AUC(0-t) [1, 6] [ng·h/mL] | AUC(0-inf) [1, 7] [ng·h/mL] | Cmax [1, 7] [ng/mL] | half-life [1, 7] [h] | Cmaxss [1, 8] [ng/mL] | Cminss [1, 8] [ng/mL] | Tmaxss Mean [1, 8] [h] | Extrapolated AUC [1, 9] [%] | Kel [1, 9] [h⁻¹] | Cmax [1, 10] [ng/mL] | AUC [1, 10] [ng·h/mL] | Ctss [1, 8] [ng/mL] | also measured |
| --- | --- | --- | --- | --- | --- | --- | --- | --- | --- | --- | --- | --- | --- | --- | --- |
| COc1cc2c(cc1OC)C1CC(=O)C(CC(C)C)CN1CC2 (racemic) [Tetrabenazine, 1,3,4,6,7,11b-hexahydro-9,10-dimethoxy-3-(2-methylpropyl)-2H-benzo(a)quinolizin-2-one] | 0.87 | 2.79 | 1.87 | 2.42 | 0.58 | 4.35 | 0.73 | 0.01 | 96.89 | 27.54 | 0.19 | – | – | – | – |
| COc1cc2c(cc1OC)[C@H]1C[C@@H](O)[C@H](CC(C)C)CN1CC2 [(+)-α-DHTBZ, (2R,3R,11bR)-3-isobutyl-9,10-dimethoxy-1,3,4,6,7,11b-hexahydro-2H-pyrido[2,1,a]isoquinolin-2-ol] | 1.16 | 13.7 | 7.98 | 10.8 | 2.61 | 4.79 | 3.31 | 0.00 | 97.18 | 32.10 | 0.17 | 2.61 | 7.98 | 0.44 | metabolite of tetrabenazine in humans (major/minor) [1]: minor metabolites |
| COc1cc2c(cc1OC)[C@H]1C[C@H](O)[C@H](CC(C)C)CN1CC2 [(+)-β-DHTBZ, (2S,3R,11bR)-3-isobutyl-9,10-dimethoxy-1,3,4,6,7,11b-hexahydro-2H-pyrido[2,1,a]isoquinolin-2-ol] | 1.12 | 599 | 376 | 410 | 103 | 5.8 | 144.76 | 5.45 | 97.11 | 5.03 | 0.13 | 103 | 376 | 5.54 | metabolite of tetrabenazine in humans (major/minor) ([1]; listed as (+)-β-dihydrotetrabenazine): major metabolites; also recorded: main metabolites |
| COc1cc2c(cc1OC)[C@@H]1C[C@H](O)[C@@H](CC(C)C)CN1CC2 [(−)-α-DHTBZ, (2S,3S,11bS)-3-isobutyl-9,10-dimethoxy-1,3,4,6,7,11b-hexahydro-2H-pyrido[2,1,a]isoquinolin-2-ol] | 0.938 | 474 | 306 | 352 | 72.9 | 7.89 | 98.34 | 5.61 | 96.96 | 10.59 | 0.1 | 72.9 | 306 | 6.10 | total stereotypic behaviour ([2]; Study 1, 2.5 mg/kg, compared to vehicle-amphetamine group): did not lead to lower locomotor activity or reduced stereotypic behaviour; total distance travelled / locomotor activity ([2]; Study 1, 2.5 mg/kg, compared to vehicle-amphetamine group, listed as (−)-α-isomer, 2.5 mg/kg): very little, if any, reduction in induced locomotor activity; total distance travelled ([2]; Study 1, 2.5 mg/kg, compared to vehicle-vehicle group): significantly different; observed behaviour of the rats ([2]; rat, in vivo, 2.5 mg/kg): less focused on what was going on around them; metabolite of tetrabenazine in humans (major/minor) ([1]; listed as (−)-α-dihydrotetrabenazine): major metabolites; also recorded: main metabolites |
| Cc1nc2n(c(=O)c1CCN1CCC(c3noc4cc(F)ccc34)CC1)CCCC2 [risperidone, reference compound] | – | – | – | – | – | – | – | – | – | – | – | – | – | – | total distance travelled ([2]; Study 1, 1 mg/kg, compared to vehicle-amphetamine group): significantly different; locomotor activity [2, 11]: lower locomotor activity; stereotypic behaviour [2, 11]: reduced stereotypic behaviour; total distance travelled / locomotor activity [2, 12]: lower locomotor activity; total stereotypic behaviour [2, 12]: reduced stereotypic behaviour |
| α-dihydrotetrabenazine | – | – | – | – | – | – | – | – | – | – | – | – | – | – | affinity relative to the β-isomer [3]: 3- to 4 fold |
